Patent publication US20260022142A1, “MACROCYCLIC IMMUNOMODULATORS” (Bristol-Myers Squibb Company, priority 2022, published 2026)
Numbered stars: 1 amine (or outer) side, 2 acyl side, 3 side chain; on linkers, the order of the positions; unused ones are H or OH. Bridge positions count the residues as written; N and C are the ends. Square brackets hold non-standard residues; d marks the D form. Peptide text beside a SMILES is read from it. * marks the point of attachment. ξ: configuration not given here. Phe(3-CF3) = N[C@@H](Cc1cccc(C(F)(F)F)c1)C(=O)O; Ala(morpholin-4-yl) = N[C@@H](CN1CCOCC1)C(=O)O; Phe(4-COOH) = N[C@@H](Cc1ccc(C(=O)O)cc1)C(=O)O; X7 = N=C(NCCC[C@H](N[*:1])C(=O)[*:2])C1CC1; Bip = N[C@@H](Cc1ccc(-c2ccccc2)cc1)C(=O)O; Phe(3-Me) = Cc1cccc(C[C@H](N)C(=O)O)c1; γGlu = O=C(O)[C@H](CCC(=O)[*:2])N[*:1]; NH(CH2)12COOH = O=C(O)CCCCCCCCCCCCN*; Val(3-OH) = CC(C)(O)[C@H](N)C(=O)O; hArg = N=C(N)NCCCC[C@H](N)C(=O)O; hCha = N[C@@H](CCC1CCCCC1)C(=O)O; 4Pal = N[C@@H](Cc1ccncc1)C(=O)O; Cha = N[C@@H](CC1CCCCC1)C(=O)O; Cit = NC(=O)NCCC[C@H](N)C(=O)O; Thr(3ξ) = CC(O)[C@H](N)C(=O)O; 12Ado = NCCCCCCCCCCCC(=O)O; hSer = N[C@@H](CCO)C(=O)O; Carboxymethyl = O=C(O)C*; Orn = NCCC[C@H](N)C(=O)O; Aun = NCCCCCCCCCCC(=O)O; Dab = NCC[C@H](N)C(=O)O; Dap = NC[C@H](N)C(=O)O; AEEA = NCCOCCOCC(=O)O; Piv = CC(C)(C)C(=O)*

What follows are compounds tested against T1, PD-1/PD-L1 interaction (PE-labeled human PD-L1-Ig binding to Jurkat cell line over-expressing human PD-1) (Homo sapiens, UniProt Q15116) (assay: Jurkat-PD-1 Cell Binding High-Content Screening Assay (CBA)). Conditions: Jurkat cell line over-expressing human PD-1; PE-labeled PD-L1-Ig 20 nM final; read-out: Jurkat hPD1-PDL1 IC50.
T1 construct: expressed in transfected cells; host or cells: Jurkat
T1 sequence (Q15116 25-288): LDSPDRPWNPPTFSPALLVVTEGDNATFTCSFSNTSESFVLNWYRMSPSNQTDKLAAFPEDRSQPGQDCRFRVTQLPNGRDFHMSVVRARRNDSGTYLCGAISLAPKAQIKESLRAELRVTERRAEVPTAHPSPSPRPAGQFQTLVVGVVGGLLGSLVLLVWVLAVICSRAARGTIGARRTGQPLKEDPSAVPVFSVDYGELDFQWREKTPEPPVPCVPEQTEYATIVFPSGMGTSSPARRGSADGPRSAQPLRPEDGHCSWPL
Format: cell-based
In short: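 Jurkat-hPD-1 cells, DMEM/10% FCS; cpd 2 h 37° C; PE-PD-L1-Ig 20 nM final, 1 h; 4% PFA fix + Hoechst 33342, 3× dPBS wash; high-content imaging read-out.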

| IC50 [nM] | SMILES |
| --- | --- |
| 14.3 | CC(C)C[C@H]1NC(=O)[C@H](CCCN)NC(=O)[C@H](Cc2ccc(C(=O)O)cc2)NC(=O)[C@H](Cc2ccc(-c3ccccc3)cc2)NC(=O)[C@H](Cc2ccc(C(=O)O)cc2)NC(=O)[C@H](Cc2cccc(C(F)(F)F)c2)NC(=O)[C@H](CC(=O)O)NC(=O)[C@H](Cc2ccc(OCC(=O)O)cc2)NC(=O)[C@H](CN2CCOCC2)NC(=O)CSC[C@@H](C(=O)N[C@@H](CCN)C(=O)NCCOCCOCC(=O)N[C@@H](CCC(=O)NCCOCCOCC(=O)NCCCCCCCCCCCCC(=O)O)C(=O)O)NC(=O)[C@H](CO)NC(=O)[C@H](C(C)(C)O)NC(=O)[C@H](CC2CCCCC2)NC(=O)[C@H](CCN)NC1=O [Compound 2940] ({CH2CO}-[Ala(morpholin-4-yl)]Y(Carboxymethyl)D[Phe(3-CF3)][Phe(4-COOH)][Bip][Phe(4-COOH)][Orn][dL][Dab][Cha][Val(3-OH)]SC[Dab][AEEA][γGlu][AEEA]-{NH(CH2)12COOH}; thioether N-14) |
| 129 | Cc1cccc(C[C@@H]2NC(=O)[C@H](CC(=O)O)NC(=O)[C@H](Cc3ccc(OCC(=O)O)cc3)NC(=O)[C@H](Cc3ccncc3)NC(=O)CSC[C@@H](C(=O)N[C@@H](CCN)C(=O)NCCCCCCCCCCC(=O)O)NC(=O)[C@H](CO)NC(=O)[C@H](C(C)(C)O)NC(=O)[C@H](CC3CCCCC3)NC(=O)[C@H](CCN)NC(=O)[C@@H](CC(C)C)NC(=O)[C@H](CCCN)NC(=O)[C@H](Cc3ccc(C(=O)O)cc3)NC(=O)[C@H](Cc3ccc(-c4ccccc4)cc3)NC(=O)[C@H](Cc3ccc(C(=O)O)cc3)NC2=O)c1 [Compound 3712] ({CH2CO}-[4Pal]Y(Carboxymethyl)D[Phe(3-Me)][Phe(4-COOH)][Bip][Phe(4-COOH)][Orn][dL][Dab][Cha][Val(3-OH)]SC[Dab][Aun]-OH; thioether N-14) |
| 8.6 | Cc1cccc(C[C@@H]2NC(=O)[C@H](CC(=O)O)NC(=O)[C@H](Cc3ccc(OCC(=O)O)cc3)NC(=O)[C@H](CN)NC(=O)CSC[C@@H](C(=O)NCCOCCOCC(=O)N[C@@H](CCN)C(=O)NCCCCCCCCCCC(=O)O)NC(=O)[C@H](CCCN)NC(=O)[C@H](C(C)C)NC(=O)[C@H](CC3CCCCC3)NC(=O)[C@H](CCN)NC(=O)[C@@H](CC(C)C)NC(=O)[C@H](CCCN)NC(=O)[C@H](CCCNC(N)=O)NC(=O)[C@H](Cc3ccc(-c4ccccc4)cc3)NC(=O)[C@H](C(C)C)NC2=O)c1 [Compound 2629] ({CH2CO}-[Dap]Y(Carboxymethyl)D[Phe(3-Me)]V[Bip][Cit][Orn][dL][Dab][Cha]V[Orn]C[AEEA][Dab][Aun]-OH; thioether N-14) |
| 21.5 | Cc1cccc(C[C@@H]2NC(=O)[C@H](CC(=O)O)NC(=O)[C@H](Cc3ccc(OCC(=O)O)cc3)NC(=O)[C@H](CCCCNC(=N)N)NC(=O)CSC[C@@H](C(=O)N[C@@H](CCCN)C(=O)N[C@@H](CO)C(=O)NCCCCCCCCCCCC(=O)O)NC(=O)[C@H](CO)NC(=O)[C@H](C(C)C)NC(=O)[C@H](CC3CCCCC3)NC(=O)[C@H](CCN)NC(=O)[C@@H](CC(C)C)NC(=O)[C@H](CCCNC(=N)N)NC(=O)[C@H](CCCNC(=N)C3CC3)NC(=O)[C@H](Cc3ccc(-c4ccccc4)cc3)NC(=O)[C@H](C(C)C)NC2=O)c1 [Compound 3578] ({CH2CO}-[hArg]Y(Carboxymethyl)D[Phe(3-Me)]V[Bip][X7]R[dL][Dab][Cha]VSC[Orn]S[12Ado]-OH; thioether N-14) |
| 9.6 | Cc1cccc(C[C@@H]2NC(=O)[C@H](CC(=O)O)NC(=O)[C@H](Cc3ccc(OCC(=O)O)cc3)NC(=O)[C@H](CN)NC(=O)CSC[C@@H](C(=O)NCCOCCOCC(=O)N[C@@H](CCCCN)C(=O)NCCCCCCCCCCC(=O)O)NC(=O)[C@H](CN)NC(=O)[C@H](C(C)C)NC(=O)[C@H](CC3CCCCC3)NC(=O)[C@H](CCN)NC(=O)[C@@H](CC(C)C)NC(=O)[C@H](CCCN)NC(=O)[C@H](C(C)C)NC(=O)[C@H](Cc3ccc(-c4ccccc4)cc3)NC(=O)[C@H](C(C)C)NC2=O)c1 [Compound 2596] ({CH2CO}-[Dap]Y(Carboxymethyl)D[Phe(3-Me)]V[Bip]V[Orn][dL][Dab][Cha]V[Dap]C[AEEA]K[Aun]-OH; thioether N-14) |

Further lines, the compound ahead of its results:

| SMILES | IC50 [nM] |
| --- | --- |
| Cc1cccc(C[C@@H]2NC(=O)[C@H](CC(=O)O)NC(=O)[C@H](Cc3ccc(OCC(=O)O)cc3)NC(=O)[C@H](CN)NC(=O)CSC[C@@H](C(=O)N[C@@H](C)C(=O)N[C@@H](CC(=O)O)C(=O)NCC(=O)NCCCCCCCCCCC(=O)O)NC(=O)[C@H]([C@@H](C)O)NC(=O)[C@H](C(C)C)NC(=O)[C@H](CC3CCCCC3)NC(=O)[C@H](CCN)NC(=O)[C@@H](CC(C)C)NC(=O)[C@H](CCCN)NC(=O)[C@H](CCC(=O)O)NC(=O)[C@H](Cc3ccc(-c4ccccc4)cc3)NC(=O)[C@H](C(C)C)NC2=O)c1 [Compound 1047] ({CH2CO}-[Dap]Y(Carboxymethyl)D[Phe(3-Me)]V[Bip]E[Orn][dL][Dab][Cha]VTCADG[Aun]-OH; thioether N-14) | 13.2 |
| CC(C)C[C@H]1NC(=O)[C@H](CCCN)NC(=O)[C@H](C(C)C)NC(=O)[C@H](Cc2ccc(-c3ccccc3)cc2)NC(=O)[C@H](C(C)C)NC(=O)[C@H](Cc2c[nH]c3ccccc23)NC(=O)[C@H](CC(=O)O)NC(=O)[C@H](Cc2ccc(OCC(=O)O)cc2)NC(=O)[C@H](Cc2ccc(OCC(=O)O)cc2)NC(=O)CSC[C@@H](C(=O)NCCOCCOCC(=O)N[C@@H](CCN)C(=O)NCCCCCCCCCCC(=O)O)NC(=O)[C@H](CN)NC(=O)[C@H](C(C)C)NC(=O)[C@H](CC2CCCCC2)NC(=O)[C@H](CCN)NC1=O [Compound 2546] ({CH2CO}-Y(Carboxymethyl)Y(Carboxymethyl)DWV[Bip]V[Orn][dL][Dab][Cha]V[Dap]C[AEEA][Dab][Aun]-OH; thioether N-14) | 13.3 |
| Cc1cccc(C[C@@H]2NC(=O)[C@H](CC(=O)O)NC(=O)[C@H](Cc3ccc(OCC(=O)O)cc3)NC(=O)[C@H](CN)NC(=O)CSC[C@@H](C(=O)N[C@@H](CCCN)C(=O)NCCCCCCCCCCC(=O)O)NC(=O)[C@H]([C@@H](C)O)NC(=O)[C@H](C(C)C)NC(=O)[C@H](CC3CCCCC3)NC(=O)[C@H](CCN)NC(=O)[C@@H](CC(C)C)NC(=O)[C@H](CCN)NC(=O)[C@H](Cc3ccc(OCC(=O)O)cc3)NC(=O)[C@H](Cc3ccc(-c4ccccc4)cc3)NC(=O)[C@H](Cc3ccc(O)cc3)NC2=O)c1 [Compound 2088] ({CH2CO}-[Dap]Y(Carboxymethyl)D[Phe(3-Me)]Y[Bip]Y(Carboxymethyl)[Dab][dL][Dab][Cha]VTC[Orn][Aun]-OH; thioether N-14) | 14.8 |
| Cc1cccc(C[C@@H]2NC(=O)[C@H](CC(=O)O)NC(=O)[C@H](Cc3ccc(OCC(=O)O)cc3)NC(=O)[C@H](CN)NC(=O)CSC[C@@H](C(=O)N[C@@H](CCN)C(=O)NCCOCCOCC(=O)NCCCCCCCCCCC(=O)O)NC(=O)[C@H](CCC(=O)O)NC(=O)[C@H](C(C)C)NC(=O)[C@H](CCC3CCCCC3)NC(=O)[C@H](CCN)NC(=O)[C@@H](CC(C)C)NC(=O)[C@H](CCCN)NC(=O)[C@H](Cc3ccc(OCC(=O)O)cc3)NC(=O)[C@H](Cc3ccc(-c4ccccc4)cc3)NC(=O)[C@H](Cc3ccc(C(=O)O)cc3)NC2=O)c1 [Compound 1276] ({CH2CO}-[Dap]Y(Carboxymethyl)D[Phe(3-Me)][Phe(4-COOH)][Bip]Y(Carboxymethyl)[Orn][dL][Dab][hCha]VEC[Dab][AEEA][Aun]-OH; thioether N-14) | 49.9 |
| Cc1cccc(C[C@@H]2NC(=O)[C@H](CC(=O)O)NC(=O)[C@H](Cc3ccc(OCC(=O)O)cc3)NC(=O)[C@H](CCNC(=O)C(C)(C)C)NC(=O)CSC[C@@H](C(=O)N[C@@H](CCN)C(=O)NCCCCCCCCCCC(=O)O)NC(=O)[C@H](CCC(N)=O)NC(=O)[C@H](C(C)C)NC(=O)[C@H](CC3CCCCC3)NC(=O)[C@H](CCN)NC(=O)[C@@H](CC(C)C)NC(=O)[C@H](CCCN)NC(=O)[C@H](Cc3ccc(OCC(=O)O)cc3)NC(=O)[C@H](Cc3ccc(-c4ccccc4)cc3)NC(=O)[C@H](Cc3ccc(C(=O)O)cc3)NC2=O)c1 [Compound 2128] ({CH2CO}-[Dab](Piv)Y(Carboxymethyl)D[Phe(3-Me)][Phe(4-COOH)][Bip]Y(Carboxymethyl)[Orn][dL][Dab][Cha]VQC[Dab][Aun]-OH; thioether N-14) | 10.6 |
| Cc1cccc(C[C@@H]2NC(=O)[C@H](CC(=O)O)NC(=O)[C@H](Cc3ccc(OCC(=O)O)cc3)NC(=O)[C@H](CN)NC(=O)CSC[C@@H](C(=O)N[C@@H](CCN)C(=O)NCCOCCOCC(=O)NCCCCCCCCCCC(=O)O)NC(=O)[C@H](C(C)O)NC(=O)[C@H](Cc3ccc(O)cc3)NC(=O)[C@H](CC3CCCCC3)NC(=O)[C@H](CCN)NC(=O)[C@@H](CC(C)C)NC(=O)[C@H](CCCN)NC(=O)[C@H](C(C)C)NC(=O)[C@H](Cc3ccc(-c4ccccc4)cc3)NC(=O)[C@H](C(C)C)NC2=O)c1 (stereo partly drawn) [Compound 2585] ({CH2CO}-[Dap]Y(Carboxymethyl)D[Phe(3-Me)]V[Bip]V[Orn][dL][Dab][Cha]Y[Thr(3ξ)]C[Dab][AEEA][Aun]-OH; thioether N-14) | 27 |
| Cc1cccc(C[C@@H]2NC(=O)[C@H](CC(=O)O)NC(=O)[C@H](Cc3ccc(OCC(=O)O)cc3)NC(=O)[C@H](CN)NC(=O)CSC[C@@H](C(=O)N[C@@H](CCN)C(=O)NCCCCCCCCCCC(=O)O)NC(=O)[C@H](CCO)NC(=O)[C@H](C(C)C)NC(=O)[C@H](CC3CCCCC3)NC(=O)[C@H](CCN)NC(=O)[C@@H](CC(C)C)NC(=O)[C@H](CCCN)NC(=O)[C@H](Cc3ccc(O)cc3)NC(=O)[C@H](Cc3ccc(-c4ccccc4)cc3)NC(=O)[C@H](Cc3ccc(OCC(=O)O)cc3)NC2=O)c1 [Compound 2102] ({CH2CO}-[Dap]Y(Carboxymethyl)D[Phe(3-Me)]Y(Carboxymethyl)[Bip]Y[Orn][dL][Dab][Cha]V[hSer]C[Dab][Aun]-OH; thioether N-14) | 29.1 |
